Data set [1] addresses T1, Renin (Homo sapiens, UniProt P00797).
T1 sequence (P00797 whole entry): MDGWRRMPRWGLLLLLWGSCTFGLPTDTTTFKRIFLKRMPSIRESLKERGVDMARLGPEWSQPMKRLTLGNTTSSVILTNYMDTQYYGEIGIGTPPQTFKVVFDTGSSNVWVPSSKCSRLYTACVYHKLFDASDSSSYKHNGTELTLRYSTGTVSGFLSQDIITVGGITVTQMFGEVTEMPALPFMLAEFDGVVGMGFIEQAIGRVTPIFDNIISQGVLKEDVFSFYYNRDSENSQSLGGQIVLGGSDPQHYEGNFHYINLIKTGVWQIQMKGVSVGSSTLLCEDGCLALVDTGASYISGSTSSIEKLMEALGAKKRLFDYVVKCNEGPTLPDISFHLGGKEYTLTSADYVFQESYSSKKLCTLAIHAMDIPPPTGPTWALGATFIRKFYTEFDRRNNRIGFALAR
The data set can be described thus: Inhibition of recombinant human renin using Dabcyl-gamma-Abu-Ile-His-Pro-Phe-His-Leu-Val-Ile-His-Thr-EDANS as substrate after 2 hrs by spectrofluorometry.

In data set [2] the target is T1, Renin. Kind of data set: Inhibition of recombinant human renin using Dabcyl-gamma-Abu-Ile-His-Pro-Phe-His-Leu-Val-Ile-His-Thr-EDANS as substrate preincubated for 30 mins followed by 30 mins incubation in human plasma by spectrofluorometry.
Data set [3] can be described thus: Apparent permeability from apical to basolateral side of human Caco2/TC7 cells at 20 uM after 2 hrs in presence of 0.5 to 5% BSA at pH 6.5 to 7.4. The conditions noted are these: Caco-2, pH 6.5. In kind it is ADME, cell-based. For orientation: Caco-2 monolayers are a common model of the intestinal barrier.
The target in data set [4] is T1, Renin. The data set can be described thus: Inhibition of recombinant human renin using Dabcyl-gamma-Abu-Ile-His-Pro-Phe-His-Leu-Val-Ile-His-Thr-EDANS as substrate preincubated for 30 mins followed by 30 mins incubation in mouse C57BL/6 plasma by spectrofluorometry.

Turning to `COc1ccc2c(C(=O)N3CCNCC3)c(Oc3cc(F)ccc3C)n(-c3ccccc3)c2n1`, in data set [1], the IC50 came out at 15 nM.

In the case of `CCc1ccnc2c1c(C(=O)N1CCNCC1)c(Oc1cc(F)ccc1C)n2-c1ccccc1`, the IC50 in data set [1] came out at 1230 nM.

Consider `Cc1c(F)cc(F)cc1Oc1c(C(=O)N2CCNCC2)c2cccnc2n1-c1ccccc1`, for which the IC50 in data set [1] turned out to be 504 nM.

As to `O=C(c1c(Oc2ccccc2)n(-c2ccccc2)c2ncccc12)N1CCNCC1`, the IC50 in data set [1] is 1830 nM.

Regarding `Cc1ccccc1Cc1c(C(=O)N2CCNCC2)c2cnccc2n1-c1ccccc1`, the IC50 in data set [1] stood at 520 nM.

With `Cc1ccccc1Oc1c(C(=O)N2CCNCC2)c2cnccc2n1-c1ccccc1`, in data set [1], the IC50 came to 847 nM.

Consider `Cc1ccc(F)cc1Oc1c(C(=O)N2CCNCC2)c2cnc(O)cc2n1-c1ccccc1`, for which the IC50 in data set [1] amounted to 24 nM.

On to `Cc1ccc(F)c(C)c1Oc1c(C(=O)N2CCN[C@@H](C)C2)c2c[nH]c(=O)cc2n1C1CCCCC1`, for which the IC50 in data set [1] came to 37 nM.

For the compound `COc1cc2c(cn1)c(C(=O)N1CCNCC1)c(Cc1cccc(F)c1C)n2-c1ccccc1`, the IC50 in data set [1] amounted to 6 nM; in data set [2], 328 nM. Besides, the Papp A→B at 2 h, 20 µM in data set [3] came out at 2.2 ×10⁻⁶ cm/s.

Take `Cc1ccccc1Oc1c(C(=O)N2CCNCC2)c2cccnc2n1-c1ccccc1`: the IC50 in data set [1] turned out to be 98 nM.

Consider `O=C(c1c(Oc2ccccc2F)n(-c2ccccc2)c2ncccc12)N1CCNCC1`, for which, in data set [1], the IC50 stood at 5060 nM.

As to `Cc1c(F)cccc1Cc1c(C(=O)N2CCN[C@@H](C)C2)c2c[nH]c(=O)cc2n1C1CCCCC1`, in data set [1], the IC50 was 154 nM.

As to `COc1cc2c(cn1)c(C(=O)N1CCNCC1)c(Cc1cccc(F)c1C)n2C1CCCCC1`, the IC50 in data set [1] was found to be 150 nM.

Consider `Cc1c(F)cccc1Oc1c(C(=O)N2CCNCC2)c2cnccc2n1-c1ccccc1`, for which the IC50 in data set [1] was 181 nM.

Regarding `CCCc1ccnc2c1c(C(=O)N1CCNCC1)c(Cc1cccc(F)c1C)n2-c1ccccc1`, the IC50 in data set [1] was 218 nM.

For `Cc1ccc(F)cc1Oc1c(C(=O)N2CCNCC2)c2cccnc2n1-c1ccccc1`, the IC50 in data set [1] turned out to be 396 nM.

Turning to `Cc1c(F)cccc1Cc1c(C(=O)N2CCNCC2)c2cnc(O)cc2n1-c1ccccc1`, the IC50 in data set [1] is 88 nM.

With `CCCc1ccnc2c1c(C(=O)N1CCNCC1)c(Oc1c(C)cccc1C)n2-c1ccccc1`, in data set [1], the IC50 was 186 nM.

Regarding `Cc1ccc(F)cc1Oc1c(C(=O)N2CCN[C@@H](C)C2)c2cnc(O)cc2n1C1CCCCC1`, in data set [1], the IC50 was determined as 11 nM.

For the compound `Cc1cccc(F)c1Oc1c(C(=O)N2CCNCC2)c2cccnc2n1-c1ccccc1`, the IC50 in data set [1] is 231 nM.

Consider `COC[C@H]1CN(C(=O)c2c(Cc3cccc(F)c3C)n(C3CCCCC3)c3cc(OC)ncc23)CCN1`, for which the IC50 in data set [1] turned out to be 4090 nM.

`Cc1c(F)cc(F)cc1Oc1c(C(=O)N2CCNCC2)c2cnccc2n1-c1ccccc1`: the IC50 in data set [1] came to 650 nM.

`Cc1ccc(F)cc1Oc1c(C(=O)N2CCNCC2)c2cc(O)cnc2n1-c1ccccc1`: the IC50 in data set [1] was found to be 6 nM; in data set [2], 189 nM; in data set [4] it was 57 nM. The Papp A→B at 2 h, 20 µM in data set [3] is 0.45 ×10⁻⁶ cm/s.

In the case of `O=C(c1c(Cc2ccccc2)n(-c2ccccc2)c2ncccc12)N1CCNCC1`, the IC50 in data set [1] amounted to 6410 nM.

Turning to `COc1cc2c(cn1)c(C(=O)N1CCN[C@@H](CO)C1)c(Cc1cccc(F)c1C)n2C1CCCCC1`, the IC50 in data set [1] is 3260 nM.

As for `COc1cc2c(cn1)c(C(=O)N1CCNCC1)c(Oc1c(C)cccc1C)n2C1CCCCC1`, the IC50 in data set [1] turned out to be 99 nM.

`Cc1c(F)cccc1Cc1c(C(=O)N2CCNCC2)c2cc(O)cnc2n1-c1ccccc1`: the results for the IC50 in data set [1], in data set [2] and in data set [4] were 6 nM, 95 nM and 159 nM, respectively.

In the case of `Cc1c(F)cccc1Cc1c(C(=O)N2CCNCC2)c2cnc(O)cc2n1C1CCCCC1`, the IC50 in data set [1] amounted to 116 nM.

As for `COc1cnc2c(c1)c(C(=O)N1CCNCC1)c(Cc1cccc(F)c1C)n2-c1ccccc1`, the IC50 in data set [1] was found to be 4670 nM.

Take `Cc1ccc(F)cc1Oc1c(C(=O)N2CCNCC2)c2cnccc2n1-c1ccccc1`: the IC50 in data set [1] was found to be 123 nM.

`CCc1ccnc2c1c(C(=O)N1CCNCC1)c(Cc1cccc(F)c1C)n2-c1ccccc1`: the IC50 in data set [1] is 89 nM.

In the case of `Cc1ccc(F)c(C)c1Oc1c(C(=O)N2CCNCC2)c2cnc(O)cc2n1C1CCCCC1`, in data set [1], the IC50 was found to be 98 nM.

Turning to `Cc1c(F)cccc1Cc1c(C(=O)N2CCNCC2)c2cnccc2n1-c1ccccc1`, the IC50 in data set [1] stood at 8 nM; in data set [2], 200 nM; in data set [4], 410 nM. The Papp A→B at 2 h, 20 µM in data set [3] was 0.64 ×10⁻⁶ cm/s.

Take `COc1cc2c(cn1)c(C(=O)N1CCNCC1)c(Oc1cc(F)ccc1C)n2-c1ccccc1`: in data set [1], the IC50 is 73 nM.

On to `O=C(c1c(Cc2ccccc2)n(-c2ccccc2)c2ccncc12)N1CCNCC1`, for which the IC50 in data set [1] worked out at 3400 nM.

A word on the IC50: it is the midpoint of a concentration-inhibition curve. A word on the Papp A→B: it is the apparent permeability from the apical to the basolateral side of a cell layer.
